System: 967376-340-R-J2-PDC multicell spheroid viability
Experiment: Anticancer human tumor 967376-340-R-J2-PDC patient-derived colon adenocarcinoma cell line growth inhibition [PI3K]
Conditions: for IC50: curve of first compound; for viability, T/C: stronger effect = lower value; active = viability on the fitted dose curve at most 10% of control; inactive = the rest
Method in brief: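 Viability of mixed-cell spheroids was determined after exposure to pairwise combinations, one partner being inavolisib, alpelisib, duvelisib or copanlisib. Highest tested concentration matched clinical Cmax where known and 10 microM where not, descending in half-log steps.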
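Also: spheroids exposed to agents for 7 days before read-out.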
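For viability, T/C in this document: luminescence used as surrogate of cell viability.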

CC1(C)CCC(CN2CCN(c3ccc(C(=O)NS(=O)(=O)c4ccc(NCC5CCOCC5)c([N+](=O)[O-])c4)c(Oc4cnc5[nH]ccc5c4)c3)CC2)=C(c2ccc(Cl)cc2)C1 + CC(Nc1ncnc2nc[nH]c12)c1cc2cccc(Cl)c2c(=O)n1-c1ccccc1
inactive: viability, T/C (second compound 0.0316 µM, first compound 0.0316 µM) 92% | viability, T/C (second compound 0.0316 µM, first compound 0.1 µM) 83.4% | viability, T/C (second compound 0.0316 µM, first compound 0.316 µM) 98.1% | viability, T/C (second compound 0.0316 µM, first compound 1 µM) 83.8% | viability, T/C (second compound 0.0316 µM, first compound 3.16 µM) 75.6% | viability, T/C (second compound 0.0316 µM, first compound 10 µM) 92.2% | viability, T/C (second compound 0.1 µM, first compound 0.0316 µM) 95.1% | viability, T/C (second compound 0.1 µM, first compound 0.1 µM) 79.7% | viability, T/C (second compound 0.1 µM, first compound 0.316 µM) 82.7% | viability, T/C (second compound 0.1 µM, first compound 1 µM) 87.3% | viability, T/C (second compound 0.1 µM, first compound 3.16 µM) 86.3% | viability, T/C (second compound 0.1 µM, first compound 10 µM) 75.2% | viability, T/C (second compound 0.316 µM, first compound 0.0316 µM) 102% | viability, T/C (second compound 0.316 µM, first compound 0.1 µM) 101% | viability, T/C (second compound 0.316 µM, first compound 0.316 µM) 83% | viability, T/C (second compound 0.316 µM, first compound 1 µM) 83.1% | viability, T/C (second compound 0.316 µM, first compound 3.16 µM) 86.5% | viability, T/C (second compound 0.316 µM, first compound 10 µM) 71.6% | viability, T/C (second compound 1 µM, first compound 0.0316 µM) 88.5% | viability, T/C (second compound 1 µM, first compound 0.1 µM) 115% | viability, T/C (second compound 1 µM, first compound 0.316 µM) 116% | viability, T/C (second compound 1 µM, first compound 1 µM) 87.8% | viability, T/C (second compound 1 µM, first compound 3.16 µM) 79% | viability, T/C (second compound 1 µM, first compound 10 µM) 74.1% | viability, T/C (second compound 3.16 µM, first compound 0.0316 µM) 90.4% | viability, T/C (second compound 3.16 µM, first compound 0.1 µM) 86% | viability, T/C (second compound 3.16 µM, first compound 0.316 µM) 67.6% | viability, T/C (second compound 3.16 µM, first compound 1 µM) 82.9% | viability, T/C (second compound 3.16 µM, first compound 3.16 µM) 79.1% | viability, T/C (second compound 3.16 µM, first compound 10 µM) 101% | viability, T/C (second compound 10 µM, first compound 0.0316 µM) 55.1% | viability, T/C (second compound 10 µM, first compound 0.1 µM) 73.3% | viability, T/C (second compound 10 µM, first compound 0.316 µM) 83.4% | viability, T/C (second compound 10 µM, first compound 1 µM) 74.7% | viability, T/C (second compound 10 µM, first compound 3.16 µM) 68% | viability, T/C (second compound 10 µM, first compound 10 µM) 76.3%
> 10 µM: IC50 (second compound 0.0316 µM) | IC50 (second compound 0.1 µM) | IC50 (second compound 0.316 µM) | IC50 (second compound 1 µM) | IC50 (second compound 3.16 µM) | IC50 (second compound 10 µM)

From PubChem BioAssay AID1963962 (Molecular Pharmacology Branch, DTP, NCI, 2024)
